Data reported in ChEMBL document CHEMBL1201862, “PubChem BioAssay data set” (2004).
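Following 48 hours of exposure in 96-well plates, responses at five concentrations were used to interpolate endpoints linearly. Here, GI50 denotes the concentration required for 50% inhibition of growth.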 Calls of active or inactive are those of the source. Cut-off read from the data, not from the text of the source: active = GI50 up to about 1.1 µM and inactive = higher.

Tests used:
Assay in all cases: DTP human tumour cell line panel, 48 h
[1] = tested on: KM12
[2] = tested on: RPMI-8226
[3] = tested on: SF-268
[4] = tested on: MOLT-4
[5] = tested on: SK-MEL-28
[6] = tested on: OVCAR-8
[7] = tested on: TK-10
[8] = tested on: SN12C
[9] = tested on: SK-MEL-5
[10] = tested on: SK-OV-3
[11] = tested on: OVCAR-5
[12] = tested on: EKVX
[13] = tested on: HCT-116
[14] = tested on: HOP-92
[15] = tested on: OVCAR-3
[16] = tested on: NCI-H23
[17] = tested on: OVCAR-4
[18] = tested on: LOX IMVI
[19] = tested on: ACHN
[20] = tested on: NCI-H460
[21] = tested on: SR
[22] = tested on: IGROV-1
[23] = tested on: Malme-3M
[24] = tested on: MCF7
[25] = tested on: MDA-MB-231
[26] = tested on: PC-3
[27] = tested on: CCRF-CEM
[28] = tested on: COLO 205
[29] = tested on: A549
[30] = tested on: HL-60
[31] = tested on: 786-0
[32] = tested on: SNB-19
[33] = tested on: NCI/ADR-RES
[34] = tested on: HCT-15
[35] = tested on: K562
[36] = tested on: UACC-257
[37] = tested on: T47D
[38] = tested on: UO-31
[39] = tested on: CAKI-1
[40] = tested on: DU-145
[41] = tested on: U-251
[42] = tested on: UACC-62
[43] = tested on: HCC 2998
[44] = tested on: SW-620
[45] = tested on: MDA-N
[46] = tested on: HT-29
[47] = tested on: HOP-62
[48] = tested on: NCI-H522
[49] = tested on: SK-MEL-2
[50] = tested on: SF-295
[51] = tested on: MDA-MB-435
[52] = tested on: SNB-75
[53] = tested on: A498
[54] = tested on: SF-539
[55] = tested on: M14
[56] = tested on: NCI-H226
[57] = tested on: RXF 393
[58] = tested on: Hs-578T
[59] = tested on: BT-549

Measured: GI50

C=CCCCN1C(=O)C2C3c4ccccc4C(C=O)(c4ccccc43)C2C1=O (centres undefined)
inactive: [1] 4.02 µM | [2] 6.84 µM | [3] 14.5 µM | [4] 4.57 µM | [5] 15.9 µM | [6] 13.4 µM | [7] 16.1 µM | [8] 7.93 µM | [9] 11.3 µM | [10] 18.2 µM | [11] 18.9 µM | [12] 6.03 µM | [13] 3.13 µM | [14] 11.3 µM | [15] 9.02 µM | [16] 12.4 µM | [17] 11.4 µM | [18] 6.07 µM | [19] 13.6 µM | [20] 15.2 µM | [21] 4.79 µM | [22] 13.6 µM | [23] 13.6 µM | [24] 12.3 µM | [25] 9.42 µM | [26] 6.18 µM | [27] 3.58 µM | [28] 12 µM | [29] 15.2 µM | [30] 9.89 µM | [31] 13.3 µM | [32] 13.1 µM | [33] 10.9 µM | [35] 3.62 µM | [36] 13 µM | [37] 8.91 µM | [38] 10.7 µM | [39] 16 µM | [40] 11.4 µM | [41] 11.2 µM | [42] 9.42 µM | [43] 14.7 µM | [44] 13 µM | [45] 13.6 µM | [46] 10 µM | [47] 14.5 µM | [48] 8.57 µM | [49] 24 µM | [50] 9.91 µM
8.41 µM: [34]

O=C(CCCN1CC=C(n2c(=O)[nH]c3ccccc32)CC1)c1cccs1
inactive: [1] > 100 µM | [2] > 100 µM | [51] > 100 µM | [3] > 100 µM | [4] 45.6 µM | [5] > 100 µM | [6] > 100 µM | [7] 67.5 µM | [8] > 100 µM | [9] > 100 µM | [10] > 100 µM | [11] > 100 µM | [12] > 100 µM | [13] > 100 µM | [52] > 100 µM | [14] > 100 µM | [15] > 100 µM | [16] > 100 µM | [17] > 100 µM | [18] > 100 µM | [19] > 100 µM | [20] 63.5 µM | [21] > 100 µM | [22] > 100 µM | [23] > 100 µM | [24] 11.8 µM | [25] > 100 µM | [26] 93.3 µM | [27] > 100 µM | [28] > 100 µM | [53] > 100 µM | [54] > 100 µM | [55] > 100 µM | [29] > 100 µM | [30] > 100 µM | [31] > 100 µM | [32] > 100 µM | [33] > 100 µM | [56] > 100 µM | [35] 66.2 µM | [36] > 100 µM | [37] > 100 µM | [38] > 100 µM | [39] > 100 µM | [40] > 100 µM | [41] > 100 µM | [57] > 100 µM | [42] > 100 µM | [43] > 100 µM | [44] > 100 µM | [45] > 100 µM | [46] 52.4 µM | [47] > 100 µM | [48] > 100 µM | [49] > 100 µM | [50] > 100 µM
> 100 µM: [34]

CCn1ncc(N=O)c1N
inactive: [51] > 100 µM | [4] > 100 µM | [5] > 100 µM | [6] > 100 µM | [7] > 100 µM | [8] > 100 µM | [9] > 100 µM | [11] > 100 µM | [12] > 100 µM | [15] > 100 µM | [18] > 100 µM | [19] > 100 µM | [20] > 100 µM | [21] > 100 µM | [24] > 100 µM | [26] > 100 µM | [31] > 100 µM | [33] > 100 µM | [36] > 100 µM | [37] > 100 µM | [38] > 100 µM | [39] > 100 µM | [40] > 100 µM | [42] > 100 µM | [43] 56.2 µM | [44] > 100 µM | [46] > 100 µM | [47] > 100 µM | [50] > 100 µM
> 100 µM: [34]

Cc1ccccc1Nc1nc2ccccc2nc1NS(=O)(=O)c1ccccc1
> 100 µM: [34]
inactive: [1] > 100 µM | [2] > 100 µM | [51] > 100 µM | [3] > 100 µM | [4] > 100 µM | [5] > 100 µM | [6] > 100 µM | [7] > 100 µM | [8] > 100 µM | [9] > 100 µM | [10] > 100 µM | [11] > 100 µM | [58] > 100 µM | [12] > 100 µM | [13] > 100 µM | [52] 56.2 µM | [14] 47.5 µM | [15] > 100 µM | [16] 43.1 µM | [17] 38.5 µM | [18] > 100 µM | [19] > 100 µM | [20] > 100 µM | [21] > 100 µM | [22] > 100 µM | [23] > 100 µM | [24] > 100 µM | [25] > 100 µM | [26] > 100 µM | [27] > 100 µM | [28] > 100 µM | [54] 59.7 µM | [55] > 100 µM | [29] > 100 µM | [30] > 100 µM | [31] > 100 µM | [32] 96.8 µM | [33] > 100 µM | [56] > 100 µM | [35] > 100 µM | [36] > 100 µM | [37] > 100 µM | [38] > 100 µM | [39] > 100 µM | [41] 67.9 µM | [57] > 100 µM | [42] 62.2 µM | [43] > 100 µM | [44] > 100 µM | [46] > 100 µM | [47] 68.1 µM | [48] > 100 µM | [49] > 100 µM | [50] 67.1 µM

CC1=C2C(=O)c3ccccc3C2=C(C)S(=O)(=O)O1
inactive: [2] > 10 µM | [51] > 10 µM | [3] > 10 µM | [4] > 10 µM | [5] > 10 µM | [9] > 10 µM | [10] > 10 µM | [11] > 10 µM | [52] > 10 µM | [16] > 10 µM | [17] > 10 µM | [19] > 10 µM | [20] > 10 µM | [21] > 10 µM | [22] > 10 µM | [23] > 10 µM | [24] > 10 µM | [27] > 10 µM | [28] > 10 µM | [55] > 10 µM | [29] > 10 µM | [30] > 10 µM | [31] > 10 µM | [33] > 10 µM | [35] > 10 µM | [37] > 10 µM | [39] > 10 µM | [41] > 10 µM | [57] > 10 µM | [42] > 10 µM | [44] > 10 µM | [47] > 10 µM | [49] > 10 µM

O=[N+]([O-])c1cc(Cl)ccc1S(=O)(=O)N1CCCc2cc(Cl)ccc21
inactive: [1] 51.9 µM | [2] 20.6 µM | [51] 17.8 µM | [59] 31.9 µM | [3] > 100 µM | [4] 6.11 µM | [5] > 100 µM | [6] > 100 µM | [7] > 100 µM | [8] > 100 µM | [9] 30.8 µM | [10] 59.6 µM | [11] > 100 µM | [58] > 100 µM | [12] > 100 µM | [13] 28.6 µM | [52] 18.7 µM | [14] 30.8 µM | [15] > 100 µM | [17] 88.9 µM | [18] 34.8 µM | [19] > 100 µM | [20] 30.5 µM | [22] 30.8 µM | [23] 51.5 µM | [24] 45.8 µM | [25] > 100 µM | [26] 55 µM | [27] 6.17 µM | [28] 51.8 µM | [53] 45.6 µM | [54] 93.1 µM | [55] > 100 µM | [29] 43.1 µM | [30] > 10 µM | [31] > 100 µM | [32] > 100 µM | [33] 25.5 µM | [56] 82.4 µM | [35] 9.48 µM | [36] 7.08 µM | [38] 46.2 µM | [39] 45.2 µM | [40] 61.5 µM | [57] 51.2 µM | [42] 19.7 µM | [43] > 100 µM | [44] > 100 µM | [45] 22.5 µM | [46] 21 µM | [47] > 100 µM | [49] > 100 µM | [50] 45.7 µM
33.7 µM: [34]
